The text below walks through data of patent US7772230B2, “Chroman compound, processes for its preparation, and its pharmaceutical use” (China Pharmaceutical University, priority 2006, dated 2010).

Data set [1] has as its target T1, rapidly delayed rectifier potassium channel current (IKr) (Cavia porcellus, UniProt O08703).
T1 construct: the Guinea pig myocardial cells are separated with enzymolysis; endogenous in cells; host or cells: freshly isolated guinea pig ventricular myocytes
T1 sequence (O08703 1-1294): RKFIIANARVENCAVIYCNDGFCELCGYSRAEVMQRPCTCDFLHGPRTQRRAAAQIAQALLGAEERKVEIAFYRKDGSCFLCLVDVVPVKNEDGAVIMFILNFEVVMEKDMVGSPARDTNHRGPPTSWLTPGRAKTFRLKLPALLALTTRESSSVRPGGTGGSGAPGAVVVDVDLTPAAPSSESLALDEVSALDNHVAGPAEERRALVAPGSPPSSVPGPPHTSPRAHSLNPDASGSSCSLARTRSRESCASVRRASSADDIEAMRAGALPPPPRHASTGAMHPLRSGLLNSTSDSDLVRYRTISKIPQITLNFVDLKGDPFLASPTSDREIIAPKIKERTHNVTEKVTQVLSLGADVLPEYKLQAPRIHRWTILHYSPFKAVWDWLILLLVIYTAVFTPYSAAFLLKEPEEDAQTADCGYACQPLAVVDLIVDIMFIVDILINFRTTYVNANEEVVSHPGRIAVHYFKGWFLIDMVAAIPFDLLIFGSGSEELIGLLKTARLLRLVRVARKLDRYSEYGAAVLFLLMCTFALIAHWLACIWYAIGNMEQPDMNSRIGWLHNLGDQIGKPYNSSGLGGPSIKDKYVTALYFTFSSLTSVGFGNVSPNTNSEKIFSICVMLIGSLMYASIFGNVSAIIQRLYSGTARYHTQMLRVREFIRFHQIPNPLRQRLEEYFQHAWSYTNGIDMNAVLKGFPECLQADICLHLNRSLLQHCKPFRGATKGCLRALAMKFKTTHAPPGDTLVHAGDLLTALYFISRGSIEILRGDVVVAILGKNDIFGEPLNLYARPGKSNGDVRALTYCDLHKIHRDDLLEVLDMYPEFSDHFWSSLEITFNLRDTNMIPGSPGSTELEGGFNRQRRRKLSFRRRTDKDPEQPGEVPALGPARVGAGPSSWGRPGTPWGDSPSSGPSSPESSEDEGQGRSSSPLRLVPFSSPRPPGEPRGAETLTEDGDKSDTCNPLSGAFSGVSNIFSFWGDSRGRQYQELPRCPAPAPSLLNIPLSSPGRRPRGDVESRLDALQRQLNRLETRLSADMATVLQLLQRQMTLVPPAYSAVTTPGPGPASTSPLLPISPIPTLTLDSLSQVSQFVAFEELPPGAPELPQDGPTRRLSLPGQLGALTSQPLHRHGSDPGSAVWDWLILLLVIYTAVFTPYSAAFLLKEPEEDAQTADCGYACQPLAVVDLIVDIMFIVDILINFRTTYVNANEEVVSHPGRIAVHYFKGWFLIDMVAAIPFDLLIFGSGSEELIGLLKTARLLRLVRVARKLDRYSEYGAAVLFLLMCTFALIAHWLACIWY
Put plainly: whole cell patch clamp on isolated Guinea pig myocardial cells, IKr. In kind it is cell-based. As to conditions: Guinea pig ventricular myocytes, current recorded 10 min after administration, 25-30° C. The protocol:
(§1) Experimental title: using vitro pachynsis myocardial cells of Guinea pig, the activity is determined by the whole cell membrane Patch clamp technology.
(§2) experimental mechanism: the Guinea pig myocardial cells are separated with enzymolysis, and the rapid activation component and the slowly activation component of the delayed commutating current in the cardiac muscle cells are recorded by whole cell membrane Patch clamp. Each compound is added to the perfuse liquid for measuring current after dissolved at least 10 min. The collected data is analyzed in pulse-fit, the IC50 value for IKr and IKs of each compound is calculated.
(§3) animals: Guinea pigs, male, weight 300-400 g.
(§4) solution: calcium free Tyrode's solution
(§5) pole inner solution (mmol/L): KCl 140, MgCl2 1.0, K2-ATP 4.0, EGTA 10, HEPES 5.0, pH=7.2
(§6) Experimental apparatus: Patch clamp magnifier (EPC-10, Germany), inverted microscope (TE-2000U, Nikon, Japan), microelectrode puller (PIP5, Germany), micro-manipulator (PCS-5000, Burleigh, USA).
(§7) Then, the hearts are taken off, their ventricle are cut to smash and incubated in fresh enzyme solution at 37° C., the solution is gently stirred for 5-10 min, pouring off the supernatant fluid, diluted with Tyrode's solution containing CaCl2 1 mmol/L, that is for the first cell stored liquor; with the same operation to obtain the second and the third cell storages. […] The cells are laid for 2 h before use.
(§8) the cell liquor is put into the cell pool, after the cells adhering to the wall, they are perfused with outer liquor of the cells at the rate of 2 ml/min, cells that having calcium resistance and clear transverse striations are to be selected, the poles are moved to the cell surface by tridimensional manipulator. The high resistance block are formed between the pole top and the cell surface by under pressure, and more over using reduced pressure to broking cell membrane, the pole inner liquor can be connected to the cell inner liquor so as to form the whole cell state. After the compensation to the capacitance and series impedance compensation the voltage tongs are recorded. The signal is led by Ag/AgCl pole and magnified by the Patch clamp magnifier, the computer dispenses presetting stimulate pulse by procedure and add to cells, and the electrical signal generated from cells is translated by transducer, and stored in computer. All of the stimulate signal control, electric current, data sampling and analyses are carried out by pulse V8.60. Azimilide is used as positive drugs in the research. Each test compound is dissolved in anhydrous ethanol, diluted to the same concentration by water, and added to outer cell liquor, the top concentration of ethanol is 0.1%.
(§9) Stimulate parameter: the record of IKr and IKS: the back value of the either current is recorded. Using extra-cellular fluid containing 0.1 mmol/L CdCl2 for perfusion, sustaining the voltage at −50 mV, depolarized to 60 mV, keeping for 500 ms, and sustaining the voltage at −50 mV, keeping for 1000 ms, recording IKr; and then binding the voltage at −50 mV for 1000 ms, recording IKs.
On the technique in general: The patch-clamp technique gives a direct electrical read-out from membranes.

Data set [2] concerns the target T2, slowly delayed rectifier potassium channel current (IKs) (Cavia porcellus, UniProt O70344).
T2 construct: the Guinea pig myocardial cells are separated with enzymolysis; endogenous in cells; host or cells: freshly isolated guinea pig ventricular myocytes
T2 sequence (O70344 1-671): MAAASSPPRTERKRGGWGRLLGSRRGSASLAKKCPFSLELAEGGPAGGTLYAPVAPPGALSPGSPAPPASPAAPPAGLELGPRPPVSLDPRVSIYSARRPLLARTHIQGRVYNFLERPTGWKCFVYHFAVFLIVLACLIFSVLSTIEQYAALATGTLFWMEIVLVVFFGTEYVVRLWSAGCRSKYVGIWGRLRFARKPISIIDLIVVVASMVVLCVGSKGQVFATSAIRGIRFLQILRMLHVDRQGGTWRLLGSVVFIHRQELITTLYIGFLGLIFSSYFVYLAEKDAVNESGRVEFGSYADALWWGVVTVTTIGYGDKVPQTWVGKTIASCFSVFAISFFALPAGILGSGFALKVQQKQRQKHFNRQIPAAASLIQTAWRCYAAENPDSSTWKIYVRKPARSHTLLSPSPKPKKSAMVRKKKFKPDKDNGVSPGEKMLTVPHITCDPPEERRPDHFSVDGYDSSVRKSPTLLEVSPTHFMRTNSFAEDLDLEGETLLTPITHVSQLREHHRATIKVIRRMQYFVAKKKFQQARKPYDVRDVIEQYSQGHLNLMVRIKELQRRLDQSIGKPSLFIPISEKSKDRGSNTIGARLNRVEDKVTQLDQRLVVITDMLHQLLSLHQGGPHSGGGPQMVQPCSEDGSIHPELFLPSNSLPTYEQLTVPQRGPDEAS
T2 sequence (P41686 1-245 partner): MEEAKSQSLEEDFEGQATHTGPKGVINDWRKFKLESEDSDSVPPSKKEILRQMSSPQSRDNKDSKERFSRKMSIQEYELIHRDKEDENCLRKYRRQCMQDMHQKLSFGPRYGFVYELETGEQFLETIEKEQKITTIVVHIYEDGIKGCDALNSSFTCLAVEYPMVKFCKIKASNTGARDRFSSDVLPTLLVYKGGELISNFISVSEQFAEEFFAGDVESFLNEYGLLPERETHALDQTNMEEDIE
The experiment in a line: whole cell patch clamp on isolated Guinea pig myocardial cells, IKs. Type of data set: cell-based. As to conditions: Guinea pig ventricular myocytes, current recorded 10 min after administration, 25-30° C. As to the method: as §1, §2, §3, §4, §5, §6, §7, §8, §9

Molecules are shown by their SMILES.

Broadly, the IC50 is the midpoint of a concentration-inhibition curve. High values mean weaker potency, low ones greater potency. What is called melting point is the temperature of the solid-liquid transition.

Consider `CCCOc1ccc2c(c1)/C(=N/N1CC(=O)N(CCCCN3CCCCC3)C1=O)CCO2` [Ib example 6, 1-[4-(2,3-dihydro-6-propoxy-)benzopyran]imino-3-(4-piperidine) butyl-2,4-imidazole dione], for which the IC50 in data set [1] was determined as 400 nM; in data set [2] it was 3.2 nM. On to `CN1CCN(CCCCN2C(=O)CN(/N=C3\CCOc4ccc(O)cc43)C2=O)CC1.O=C(O)/C=C/C(=O)O`, for which the melting point was 203 to 205 °C.

As for `COc1ccc2c(c1)/C(=N/N1CC(=O)N(CCCN3CCN(C)CC3)C1=O)CCO2` [Ia example 8, 1-[4-(2,3-dihydro-6-methoxy)benzopyran]imino-3-[3-(4-methylpiperazine-1-yl)propyl]-2,4-imidazole dione difumarate], the IC50 came out at 540 nM in data set [1] and 1.9 nM in data set [2]. In turn, `Cc1ccc2c(c1)/C(=N/N1CC(=O)N(CCCCN3CCN(C)CC3)C1=O)CCO2.O=C(O)/C=C/C(=O)O` registered a melting point of 231 to 233 °C.

As to `CN1CCN(CCCN2C(=O)CN(N=C3CCOc4ccc(Cl)cc43)C2=O)CC1` [Ia example 10, 1-[4-(2,3-dihydro-6-chlorine)benzopyran]imino-3-[3-(4-methylpiperazine-1-yl)propyl]-2,4-imidazole dione difumarate], the IC50 in data set [1] was 3870 nM; in data set [2], 5.8 nM. With `COc1ccc2c(c1)/C(=N/N1CC(=O)N(CCCCN3CCCCC3)C1=O)CCO2` [Ia example 5, 1-[4-(2,3-dihydro-6-methoxy)benzopyran]imino-3-(4-piperidine) butyl-2,4-imidazole dione], the values for the 50% inhibitory concentration (IC50) in data set [1] and in data set [2] were 7470 nM and 22000 nM, respectively. As for `CCOc1ccc2c(c1)/C(=N/N1CC(=O)N(CCCCN3CCN(C)CC3)C1=O)CCO2.O=C(O)/C=C/C(=O)O`, the melting point was 225 to 227 °C. Turning to `CCCCOc1ccc2c(c1)/C(=N/N1CC(=O)N(CCCCN3CCCCC3)C1=O)CCO2` [Ib example 7, 1-[4-(2,3-dihydro-6-butoxy)benzopyran]imino-3-(4-piperidine) butyl-2,4-imidazole dione], the IC50 in data set [1] was determined as 17.4 nM; in data set [2] it was 1030 nM. The like results for `Cc1ccc2c(c1)/C(=N/N1CC(=O)N(CCCN3CCN(C)CC3)C1=O)CCO2` [Ia example 9, 1-[4-(2,3-dihydro-6-methyl)benzopyran]imino-3-[3-(4-methylpiperazine-1-)propyl]-2,4-imidazole dione difumarate] were, in that order, 619 nM and 304 nM. On to `CCOc1ccc2c(c1)/C(=N/N1CC(=O)N(CCCCN3CCCCC3)C1=O)CCO2` [Ib example 5, 1-[4-(2,3-dihydro-6-ethoxy)benzopyran]imino-3-(4-piperidine) butyl-2,4-imidazole dione], for which the IC50 came to 450 nM in data set [1] and 1040 nM in data set [2]. The like results for `O=C1CN(/N=C2\CCOc3ccc(Cl)cc32)C(=O)N1CCCCN1CCCCC1` [Ia example 6, 1-[4-(2,3-dihydro-6-chloro)benzopyran]imino-3-(4-piperidine) butyl-2,4-imidazole dione] were, in that order, 6.2 nM and 61000 nM. For the compound `CCOc1ccc2c(c1)/C(=N/N1CC(=O)N(CCCN3CCN(C)CC3)C1=O)CCO2` [Ib example 9, 1-[4-(2,3-dihydro-6-ethoxy)benzopyran]imino-3-[3-(4-methylpiperazine-1-yl)propyl]-2,4-imidazole dione difumarate], the IC50 in data set [1] was found to be 4340 nM; in data set [2] it was 26.9 nM. Turning to `CCCOc1ccc2c(c1)/C(=N/N1CC(=O)N(CCCN3CCN(C)CC3)C1=O)CCO2` [Ib example 10, 1-[4-(2,3-dihydro-6-propoxy-)benzopyran]imino-3-[3-(4-methylpiperazine-1-yl)propyl]-2,4-imidazole dione difumarate], the IC50 in data set [1] is 106 nM; in data set [2] it was 9.5 nM. For `Cc1ccc2c(c1)/C(=N/N1CC(=O)N(CCCCN3CCCCC3)C1=O)CCO2` [Ia example 7, 1-[4-(2,3-dihydro-6-methyl)benzopyran]imino-3-(4-piperidine) butyl-2,4-imidazole dione], the IC50 in data set [1] amounted to 22000 nM; in data set [2] it was 18900 nM.
